# Assay results published in patent US20260166039A1 (SCHRÖDINGER, INC., priority 2022, published 2026).
# Target: T1, Wee1 kinase domain (Homo sapiens, UniProt P30291)
# T1 construct: Wee1 kinase domain was purchased from Carna (catalog #05-177); purchased Carna 05-177
# Assay: Wee1 Kinase Biochemical Assay (ADP-Glo)
# Details: 1 nM Wee1 enzyme, 15 uM ATP, 4 hours at 25° C
# Experimental: Wee1 Kinase Biochemical Assay Protocol
# Wee1 kinase domain was purchased from Carna (catalog #05-177). Wee1 kinase activity was determined with Poly(Lys,Tyr 4:1) hydrobromide as a substrate (Sigma-Aldrich) and by measuring ADP production using the ADP-Glo Kinase Assay kit (Promega) following the manufacturer's instructions. The kinase reaction was performed using the following conditions:
# Buffer: 40 mM Tris-HCl, 20 mM magnesium chloride, supplemented with 0.1 mg/mL bovine serum albumin and 2 mM DTT. The final reaction mix contained 1 nM Wee1 enzyme, 15 uM ATP, and 2 ng/mL Poly(Lys,Tyr 4:1) hydrobromide substrate. The reaction time was 4 hours at 25° C.
# The ADP-Glo signal was measured using the Envision plate reader and the percentage inhibition of kinase activity calculated for each inhibitor tested. Percent inhibition of Wee1 kinase activity was calculated based on the following formula.
# [formula] • SSample: the signal of compounds • SHigh Ctrl: the signal of high control (DMSO) • SLow Ctrl: the signal of low control (positive control Wee1 inhibitor at saturating concentration)
# T1 sequence (P30291 299-569 limits assumed): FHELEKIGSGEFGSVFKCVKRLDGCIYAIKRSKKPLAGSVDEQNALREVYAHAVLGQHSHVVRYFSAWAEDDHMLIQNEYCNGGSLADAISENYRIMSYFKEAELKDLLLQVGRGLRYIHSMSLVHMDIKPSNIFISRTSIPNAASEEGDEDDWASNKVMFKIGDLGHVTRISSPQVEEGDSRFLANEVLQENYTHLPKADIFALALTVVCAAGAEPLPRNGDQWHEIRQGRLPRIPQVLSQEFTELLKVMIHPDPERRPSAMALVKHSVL
row,IC50,Structure (SMILES)
1,< 10 nM,"CC(C)n1nc(N2c3nc(Nc4ccc(N5CCN(C)CC5)cc4)ncc3[C@@]3(C)COC(C)(C)C[C@@H]23)ccc1=O (single isomer, unassigned) [Example 829]"
2,< 10 nM,"CC1(C)C[C@H]2N(c3cccc(N=S(C)(C)=O)n3)c3nc(Nc4cncc(C(F)F)c4)ncc3[C@@]2(C)CO1 (single isomer, unassigned) [Example 815]"
3,< 10 nM,"CN1C[C@@H]2C[C@H]1CN2c1ccc(Nc2ncc3c(n2)N(c2cccc(C(F)F)n2)[C@@H]2CC(C)(C)OC[C@]32C)cc1 [Example 813, (4bR,8aR)-9-(6-(difluoromethyl)pyridin-2-yl)-4b,7,7-trimethyl-N-(4-((1S,4S)-5-methyl-2,5-diazabicyclo[2.2.1]heptan-2-yl)phenyl)-4b,5,7,8,8a,9-hexahydropyrano[3′,4′:4,5]pyrrolo[2,3-d]pyrimidin-2-amine]"

# Same assay, conditions: Wee1 kinase domain, 15 uM ATP, ADP-Glo
row,IC50,Structure (SMILES)
1,10 to 100 nM,"CC1(C)C[C@@H]2N(c3cccc(N=S(C)(C)=O)n3)c3nc(Nc4ccc([C@H]5CCCN5)nc4)ncc3[C@]2(C)CO1 (single isomer, unassigned) [Example 211]"
2,10 to 100 nM,"Cc1cc(Nc2ncc3c(n2)N(c2cccc(N=S(C)(C)=O)n2)[C@H]2CC(C)(C)OC[C@@]32C)ccc1[C@@H]1COCCN1 (single isomer, unassigned) [Example 113]"
3,10 to 100 nM,"CC1(C)C[C@@H]2N(c3cccc(N=S(C)(C)=O)n3)c3nc(Nc4ccc([C@H]5CCNC5)cc4)ncc3[C@]2(C)CO1 (single isomer, unassigned) [Example 138]"
4,10 to 100 nM,"C[C@H]1COC(=O)N1c1cccc(N2c3nc(Nc4ccc([C@]5(C)CCN(C)C5)cc4)ncc3[C@]3(C)COC(C)(C)C[C@H]23)n1 (single isomer, unassigned) [Example 350]"
5,10 to 100 nM,"CC1(C)C[C@@H]2N(c3cccc(N=S(C)(C)=O)n3)c3nc(Nc4ccc(O[C@@H]5CCNC5)cc4)ncc3[C@]2(C)CO1 (single isomer, unassigned) [Example 156]"
6,10 to 100 nM,"C[C@H]1COC(=O)N1c1cccc(N2c3nc(Nc4ccc([C@@H]5CCN(C)C5)cc4)ncc3[C@]3(C)COC(C)(C)C[C@H]23)n1 (single isomer, unassigned) [Example 304]"
7,100 to 1000 nM,"C[C@H]1COC(=O)N1c1cccc(N2c3nc(Nc4ccn(C)c(=O)c4)ncc3[C@]3(C)COC(C)(C)C[C@H]23)n1 (single isomer, unassigned) [Example 340]"
8,10 to 100 nM,"CNCc1cccc(N2c3nc(Nc4ccc(N5CCS(=N)(=O)CC5)cc4)ncc3[C@]3(C)COC(C)(C)C[C@H]23)n1 (single isomer, unassigned) [Example 50]"
9,10 to 100 nM,"Cc1cc(Nc2ncc3c(n2)N(c2cccc(N4C(=O)OC[C@@H]4C)n2)[C@H]2CC(C)(C)OC[C@@]32C)ccc1N1C[C@@H]2C[C@H]1CN2C (single isomer, unassigned) [Example 294]"
10,10 to 100 nM,"CNCc1cccc(N2c3nc(Nc4ccc(N5CCC(F)(F)CC5)cc4)ncc3[C@]3(C)COC(C)(C)C[C@H]23)n1 (single isomer, unassigned) [Example 15]"
11,10 to 100 nM,"CN[C@H]1CCN(c2ccc(Nc3ncc4c(n3)N(c3cccc(N5C(=O)OC[C@@H]5C)n3)[C@H]3CC(C)(C)OC[C@@]43C)cc2)C1 (single isomer, unassigned) [Example 316]"
12,10 to 100 nM,"CNCc1cccc(N2c3nc(Nc4ccc([C@H]5CNC(=O)C5)cc4)ncc3[C@]3(C)COC(C)(C)C[C@H]23)n1 (single isomer, unassigned) [Example 62]"
13,10 to 100 nM,"C[C@H]1COC(=O)N1c1cccc(N2c3nc(Nc4ccc(O[C@H]5CCN(C)C5)cc4)ncc3[C@]3(C)COC(C)(C)C[C@H]23)n1 (single isomer, unassigned) [Example 332]"
14,10 to 100 nM,"C[C@H]1COC(=O)N1c1cccc(N2c3nc(Nc4ccc(N5C[C@@H]6C[C@H]5CN6C)cc4)ncc3[C@]3(C)COC(C)(C)C[C@H]23)n1 (single isomer, unassigned) [Example 244]"
15,≥ 1000 nM,"CNCc1cccc(N2c3nc(Nc4ccc([C@@H]5CCC(=O)N5C)cc4)ncc3[C@]3(C)COC(C)(C)C[C@H]23)n1 (single isomer, unassigned) [Example 51]"
16,100 to 1000 nM,"CNCc1cccc(N2c3nc(Nc4ccc(N5C6CCC5COC6)c(C)c4)ncc3[C@]3(C)COC(C)(C)C[C@H]23)n1 (single isomer, unassigned) [Example 86]"
17,10 to 100 nM,"Cc1cc(Nc2ncc3c(n2)N(c2cccc(N=S(C)(C)=O)n2)[C@H]2CC(C)(C)OC[C@@]32C)ccc1[C@H]1COCCN1 (single isomer, unassigned) [Example 115]"
18,10 to 100 nM,"CC1(C)C[C@@H]2N(c3cccc(N=S(C)(C)=O)n3)c3nc(Nc4ccc([C@@H]5CCCN5)nc4)ncc3[C@]2(C)CO1 (single isomer, unassigned) [Example 213]"
19,100 to 1000 nM,"CN1CCC(n2cnc(Nc3ncc4c(n3)N(c3cccc(N=S(C)(C)=O)n3)[C@H]3CC(C)(C)OC[C@@]43C)c2)CC1 (single isomer, unassigned) [Example 206]"

# Same assay, conditions: class symbols; 1 nM Wee1 enzyme, 15 uM ATP, 4 hours at 25° C.
row,Structure (SMILES),IC50
1,"CC1(C)C[C@H]2N(c3cccc(N=S(C)(C)=O)n3)c3nc(NC(=O)c4ccccc4)ncc3[C@@]2(C)CO1 (single isomer, unassigned) [Example 404]",10 to 100 nM
2,"CN1CC[C@@H](Oc2ccc(Nc3ncc4c(n3)N(c3cccc(C(C)(C)O)n3)[C@@H]3CC(C)(C)OC[C@]43C)cc2)C1 (single isomer, unassigned) [Example 424]",10 to 100 nM
3,"CN[C@@H](C)c1cc(C)nc(N2c3nc(Nc4ccc(N5CCOCC5)cc4)ncc3[C@]3(C)COC(C)(C)C[C@H]23)c1 (single isomer, unassigned) [Example 559]",≥ 1000 nM
4,"CNCc1ccnc(N2c3nc(Nc4ccc(N5CCOCC5)cc4)ncc3[C@@]3(C)COC(C)(C)C[C@@H]23)c1 (single isomer, unassigned) [Example 547]",10 to 100 nM

# Other lines, results leading:
row,IC50,Structure (SMILES)
1,< 10 nM,"CC[C@]1(O)CCc2ccc(N3c4nc(Nc5ccc(N6C[C@@H]7C[C@H]6CN7C)cc5)ncc4[C@@]4(C)COC(C)(C)C[C@@H]34)nc21 [Example 791, (S)-7-ethyl-2-((4bR,8aR)-4b,7,7-trimethyl-2-((4-((1S,4S)-5-methyl-2,5-diazabicyclo[2.2.1]heptan-2-yl)phenyl)amino)-4b,7,8,8a-tetrahydropyrano[3′,4′:4,5]pyrrolo[2,3-d]pyrimidin-9(5H)-yl)-6,7-dihydro-5H-cyclopenta[b]pyridin-7-ol]"
2,10 to 100 nM,"CC1(C)C[C@@H]2N(c3cccc(N4CCOC4=O)n3)c3nc(Nc4ccc([C@@H]5CCNC5)cc4)ncc3[C@]2(C)CO1 (single isomer, unassigned) [Example 606]"
3,10 to 100 nM,"CN1CC[C@H](c2ccc(Nc3ncc4c(n3)N(c3cccc(N5CCOC5=O)n3)[C@H]3CC(C)(C)OC[C@@]43C)cc2)C1 (single isomer, unassigned) [Example 603]"
4,10 to 100 nM,"CN1CC[C@H](OC(=O)Nc2ncc3c(n2)N(c2cccc(N=S(C)(C)=O)n2)[C@@H]2CC(C)(C)OC[C@]32C)C1 (single isomer, unassigned) [Example 773]"
5,< 10 nM,"CC[C@]1(O)CCc2ccc(N3c4nc(Nc5ccc(N6CCN(C)CC6)cc5)ncc4[C@@]4(C)COC(C)(C)C[C@@H]34)nc21 [Example 788, (S)-7-ethyl-2-((4bR,8aR)-4b,7,7-trimethyl-2-((4-(4-methylpiperazin-1-yl)phenyl)amino)-4b,7,8,8a-tetrahydropyrano[3′,4′:4,5]pyrrolo[2,3-d]pyrimidin-9(5H)-yl)-6,7-dihydro-5H-cyclopenta[b]pyridin-7-ol]"
6,10 to 100 nM,"CC1(C)C[C@@H]2N(c3cccc(N4CCOC4=O)n3)c3nc(Nc4ccc(O[C@@H]5CCNC5)cc4)ncc3[C@]2(C)CO1 [Example 623, 3-(6-((4bS,8aS)-4b,7,7-trimethyl-2-((4-(((R)-pyrrolidin-3-yl)oxy)phenyl)amino)-4b,7,8,8a-tetrahydropyrano[3′,4′:4,5]pyrrolo[2,3-d]pyrimidin-9(5H)-yl)pyridin-2-yl)oxazolidin-2-one]"
7,100 to 1000 nM,"CNCc1cccc(N2c3nc(NC(=O)[C@H]4C[C@@H]4c4cccnc4)ncc3[C@@]3(C)COC(C)(C)C[C@@H]23)n1 [Example 769, (1S,2S)-2-(pyridin-3-yl)-N-((4bR,8aR)-4b,7,7-trimethyl-9-(6-((methylamino)methyl)pyridin-2-yl)-4b,5,7,8,8a,9-hexahydropyrano[3′,4′:4,5]pyrrolo[2,3-d]pyrimidin-2-yl)cyclopropane-1-carboxamide]"
8,100 to 1000 nM,"CN1C[C@@H]2C[C@H]1CN2c1ccc(Nc2ncc3c(n2)N(c2cccc(C4(O)CC4)n2)[C@H]2CC(C)(C)OC[C@@]32C)cc1 [Example 645, 1-(6-((4bS,8aS)-4b,7,7-trimethyl-2-((4-((1S,4S)-5-methyl-2,5-diazabicyclo[2.2.1]heptan-2-yl)phenyl)amino)-4b,7,8,8a-tetrahydropyrano[3′,4′:4,5]pyrrolo[2,3-d]pyrimidin-9(5H)-yl)pyridin-2-yl)cyclopropan-1-ol]"
9,100 to 1000 nM,"CC1(C)C[C@@H]2N(c3cccc(N4CCOC4=O)n3)c3nc(Nc4ccc([C@H]5CNCC5(F)F)cc4)ncc3[C@]2(C)CO1 [Example 683, 3-(6-((4bS,8aS)-2-((4-((S)-4,4-difluoropyrrolidin-3-yl)phenyl)amino)-4b,7,7-trimethyl-4b,7,8,8a-tetrahydropyrano[3′,4′:4,5]pyrrolo[2,3-d]pyrimidin-9(5H)-yl)pyridin-2-yl)oxazolidin-2-one]"
